Results: ChEMBL document CHEMBL1146208, “Discovery and optimization of novel, non-steroidal glucocorticoid receptor modulators” (Bioorg Med Chem Lett, 2007)

Key:
Glucocorticoid receptor [1] = biological target: T1, Glucocorticoid receptor (Homo sapiens, UniProt P04150); test: Displacement of [3H]dexamethasone from human recombinant GR
T1 sequence (P04150 whole entry): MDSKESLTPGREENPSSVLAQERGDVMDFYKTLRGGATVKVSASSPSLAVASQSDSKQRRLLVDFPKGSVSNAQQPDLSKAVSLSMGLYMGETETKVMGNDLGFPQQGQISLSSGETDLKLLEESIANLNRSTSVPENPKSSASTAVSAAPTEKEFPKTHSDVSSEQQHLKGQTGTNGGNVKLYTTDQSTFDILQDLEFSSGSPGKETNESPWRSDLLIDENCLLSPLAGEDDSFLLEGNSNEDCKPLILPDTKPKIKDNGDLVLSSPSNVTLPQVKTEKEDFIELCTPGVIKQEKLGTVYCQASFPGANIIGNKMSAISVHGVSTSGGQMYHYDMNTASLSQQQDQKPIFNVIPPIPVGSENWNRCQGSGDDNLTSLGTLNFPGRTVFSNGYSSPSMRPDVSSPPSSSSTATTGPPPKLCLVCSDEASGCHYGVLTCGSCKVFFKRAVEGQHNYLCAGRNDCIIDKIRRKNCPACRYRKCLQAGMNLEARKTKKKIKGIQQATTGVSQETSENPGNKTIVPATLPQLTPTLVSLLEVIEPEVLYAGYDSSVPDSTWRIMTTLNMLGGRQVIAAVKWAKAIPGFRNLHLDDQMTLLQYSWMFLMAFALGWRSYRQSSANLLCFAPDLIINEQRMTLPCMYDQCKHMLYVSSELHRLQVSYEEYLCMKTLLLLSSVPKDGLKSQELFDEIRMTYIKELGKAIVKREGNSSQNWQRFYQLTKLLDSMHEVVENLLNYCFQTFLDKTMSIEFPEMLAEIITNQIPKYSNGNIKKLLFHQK

[2] = biological target: T2, Glucocorticoid receptor (Homo sapiens) (UniProt P04150); test: Displacement of [3H]dexamethasone from glucocorticoid receptor at 1 uM
T2 sequence (whole entry): T1 sequence (P04150 whole entry)

Glucocorticoid receptor [3] = biological target: T1, Glucocorticoid receptor; test: Antagonist activity at human GR; type: functional
[4] = biological target: T3, Mineralocorticoid receptor (Homo sapiens, UniProt P08235); test: biochemical
T3 sequence (P08235 whole entry): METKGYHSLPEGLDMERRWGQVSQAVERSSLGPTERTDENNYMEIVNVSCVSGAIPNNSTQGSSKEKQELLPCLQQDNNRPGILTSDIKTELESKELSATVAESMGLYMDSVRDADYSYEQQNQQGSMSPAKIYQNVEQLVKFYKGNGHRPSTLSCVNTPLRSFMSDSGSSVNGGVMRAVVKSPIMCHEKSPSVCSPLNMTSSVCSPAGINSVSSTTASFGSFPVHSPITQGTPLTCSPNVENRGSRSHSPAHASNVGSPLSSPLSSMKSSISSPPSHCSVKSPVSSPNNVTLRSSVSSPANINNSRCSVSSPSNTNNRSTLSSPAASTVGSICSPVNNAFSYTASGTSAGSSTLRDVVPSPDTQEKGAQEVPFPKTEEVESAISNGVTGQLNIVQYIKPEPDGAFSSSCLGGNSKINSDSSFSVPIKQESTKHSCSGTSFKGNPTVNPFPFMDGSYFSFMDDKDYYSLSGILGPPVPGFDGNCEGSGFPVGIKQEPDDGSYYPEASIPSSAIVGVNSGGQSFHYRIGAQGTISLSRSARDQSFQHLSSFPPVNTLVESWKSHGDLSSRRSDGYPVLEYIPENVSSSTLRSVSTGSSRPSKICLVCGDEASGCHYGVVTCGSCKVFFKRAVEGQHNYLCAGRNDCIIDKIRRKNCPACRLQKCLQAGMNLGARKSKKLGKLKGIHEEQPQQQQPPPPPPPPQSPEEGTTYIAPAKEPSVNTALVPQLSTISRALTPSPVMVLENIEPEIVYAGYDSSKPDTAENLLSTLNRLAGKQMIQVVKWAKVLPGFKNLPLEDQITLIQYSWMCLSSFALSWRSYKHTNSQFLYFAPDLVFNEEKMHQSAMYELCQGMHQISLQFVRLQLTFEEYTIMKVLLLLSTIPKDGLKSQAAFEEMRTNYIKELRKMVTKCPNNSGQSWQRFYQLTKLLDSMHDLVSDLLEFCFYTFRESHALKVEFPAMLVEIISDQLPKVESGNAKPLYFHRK
Description: Displacement of [3H]aldosterone from mineralocorticoid receptor expressed in Sf9 cells

[5] = AUC in rat at 5 mg/kg, po; type: ADME, organism-based; set-up: dose 5 mg/kg, route oral; settings: plasma
[6] = Cmax in rat at 5 mg/kg, po; type: ADME, organism-based; set-up: dose 5 mg/kg, route oral; settings: in vivo
CYP3A4 = CYP3A4 (Homo sapiens, UniProt P08684); test: Inhibition of CYP3A4 at 1 uM; type: ADME
Chain of CYP3A4 (P08684 whole entry): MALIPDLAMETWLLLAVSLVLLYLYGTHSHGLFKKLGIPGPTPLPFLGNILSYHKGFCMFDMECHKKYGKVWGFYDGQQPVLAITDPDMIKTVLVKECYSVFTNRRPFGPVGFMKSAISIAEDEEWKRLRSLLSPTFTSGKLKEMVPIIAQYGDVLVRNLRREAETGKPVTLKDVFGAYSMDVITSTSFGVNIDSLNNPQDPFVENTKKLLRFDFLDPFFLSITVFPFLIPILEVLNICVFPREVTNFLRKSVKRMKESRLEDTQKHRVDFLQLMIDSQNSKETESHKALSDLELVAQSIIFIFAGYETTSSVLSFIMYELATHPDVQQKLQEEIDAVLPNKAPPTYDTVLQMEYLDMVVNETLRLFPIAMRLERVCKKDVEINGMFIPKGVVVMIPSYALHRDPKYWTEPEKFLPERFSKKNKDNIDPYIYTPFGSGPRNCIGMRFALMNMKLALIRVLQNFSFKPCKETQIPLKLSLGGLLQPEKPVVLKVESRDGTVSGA

[7] = Metabolic stability in human […] S9 fraction after 30 mins; type: ADME; settings: read-out: Stability
Plasma = test: Drug lavel in rat plasma at 1 mg/kg, iv; type: ADME, organism-based; set-up: dose 1 mg/kg, route intravenous; settings: in vivo
Brain = test: Drug level in rat brain at 1 mg/kg, iv; type: ADME, organism-based; set-up: dose 1 mg/kg, route intravenous; settings: in vivo
Progesterone receptor = biological target: T4, Progesterone receptor (Homo sapiens, UniProt P06401); test: Displacement of [3H]progesterone from progesterone receptor
T4 sequence (P06401 whole entry): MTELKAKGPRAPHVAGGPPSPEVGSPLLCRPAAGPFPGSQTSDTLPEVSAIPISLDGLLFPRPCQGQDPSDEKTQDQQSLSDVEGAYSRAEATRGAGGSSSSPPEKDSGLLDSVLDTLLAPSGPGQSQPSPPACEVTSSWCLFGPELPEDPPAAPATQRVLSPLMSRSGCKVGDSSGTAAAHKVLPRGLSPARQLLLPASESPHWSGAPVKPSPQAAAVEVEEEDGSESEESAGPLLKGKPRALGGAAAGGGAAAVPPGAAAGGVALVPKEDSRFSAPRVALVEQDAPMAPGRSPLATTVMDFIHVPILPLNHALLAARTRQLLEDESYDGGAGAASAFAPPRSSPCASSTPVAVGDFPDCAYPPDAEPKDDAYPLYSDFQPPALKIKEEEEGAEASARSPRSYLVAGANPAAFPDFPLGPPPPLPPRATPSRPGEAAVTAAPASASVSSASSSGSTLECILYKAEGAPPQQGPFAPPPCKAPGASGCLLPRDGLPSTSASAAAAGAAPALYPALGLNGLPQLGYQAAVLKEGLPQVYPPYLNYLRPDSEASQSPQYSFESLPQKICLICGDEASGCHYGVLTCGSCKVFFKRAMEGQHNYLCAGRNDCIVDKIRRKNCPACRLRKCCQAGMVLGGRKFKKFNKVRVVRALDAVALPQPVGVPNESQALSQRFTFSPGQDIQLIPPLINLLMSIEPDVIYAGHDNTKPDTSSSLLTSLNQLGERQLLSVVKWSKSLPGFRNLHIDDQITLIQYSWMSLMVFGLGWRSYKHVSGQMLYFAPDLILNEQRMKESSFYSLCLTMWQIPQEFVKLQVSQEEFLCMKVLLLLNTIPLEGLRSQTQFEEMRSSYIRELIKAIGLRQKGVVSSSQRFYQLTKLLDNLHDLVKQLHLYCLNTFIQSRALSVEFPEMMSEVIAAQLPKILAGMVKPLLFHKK

Row | Ki (Glucocorticoid receptor [1]) [nM] | Ki (Glucocorticoid receptor [3]) [nM] | Structure (SMILES) | further results
1 | 4500 |  | Cn1c(=O)[nH]c(N2CCC(O)CC2)c(Cc2cccc(C(F)(F)F)c2)c1=O | 
2 |  |  | CC1CCN(c2[nH]c(=O)n(C)c(=O)c2Cc2ccccc2)CC1 | inhibition [2]: 2%
3 |  |  | CC(=O)Nc1cccc(C2CCN(c3[nH]c(=O)[nH]c(=O)c3Cc3ccccc3)CC2)c1 | inhibition [2]: 11%
4 | 31 | 260 | O=c1[nH]c(N2CCC(c3ccccc3)CC2)c(Cc2ccc(Cl)cc2)c(=O)[nH]1 | 
5 | 8.7 | 50 | O=c1[nH]c(N2CCC(c3ccccc3)CC2)c(Cc2ccccc2Cl)c(=O)[nH]1 | Ki [4]: 3490 nM
6 |  |  | Cn1c(N2CCC(Cc3ccccc3)CC2)c(Cc2ccccc2)c(=O)[nH]c1=O | inhibition [2]: 11%
7 | 8.1 | 93 | O=c1[nH]c(N2CCC(c3ccccc3)CC2)c(Cc2ccccc2)c(=O)[nH]1 | AUC [5]: 600 ng·h/mL; Cmax [6]: 143 ng/mL; inhibition at 1 µM (CYP3A4): 25%; Ki [4]: 930 nM; remaining at 0.5 h [7]: 94%; Cp (Plasma): 178 ng/mL; Drug uptake (Brain): 45 ng/g
8 | 7.1 |  | COc1ccccc1C1CCN(c2[nH]c(=O)[nH]c(=O)c2Cc2ccccc2)CC1 | Ki [4]: 298 nM
9 | 33 | 300 | Cn1c(=O)[nH]c(N2CCC(Cc3ccccc3)CC2)c(Cc2ccccc2Br)c1=O | 
10 | 9.1 | 96 | O=c1[nH]c(N2CCC(c3ccccc3)CC2)c(Cc2cccc(Cl)c2)c(=O)[nH]1 | Ki (Progesterone receptor): 7050 nM
11 |  |  | N#Cc1ccc(Cc2c(N3CCC(c4ccccc4)CC3)[nH]c(=O)[nH]c2=O)cc1 | inhibition [2]: 37%
12 | 24 | 100 | Cn1c(=O)[nH]c(N2CCC(Cc3ccccc3)CC2)c(Cc2ccccc2)c1=O | 
13 |  |  | O=c1[nH]c(N2CCC(c3cccc(Cl)c3)CC2)c(Cc2ccccc2)c(=O)[nH]1 | Ki [4]: 527 nM
14 | 46 |  | CC(=O)Nc1ccc(C2CCN(c3[nH]c(=O)[nH]c(=O)c3Cc3ccccc3)CC2)cc1 | 
15 | 45 |  | COc1ccc(C2CCN(c3[nH]c(=O)[nH]c(=O)c3Cc3ccccc3)CC2)cc1 | 
16 |  |  | Cn1c(=O)[nH]c(N2CCC(CCCc3ccccc3)CC2)c(Cc2ccccc2)c1=O | inhibition [2]: 18%
17 | 360 |  | Cn1c(=O)[nH]c(N2CCC(O)(Cc3ccccc3)CC2)c(Cc2ccccc2)c1=O | 
18 | 14 | 65 | O=c1[nH]c(N2CCC(c3ccccc3)CC2)c(Cc2cccc(Br)c2)c(=O)[nH]1 | 
19 |  |  | Cn1c(=O)[nH]c(N2CCc3ccccc3C2)c(Cc2ccccc2)c1=O | inhibition [2]: 23%
20 | 78 |  | Cn1c(=O)[nH]c(N2CCC(Oc3ccccc3)CC2)c(Cc2ccccc2)c1=O | 
21 | 20 | 190 | Cn1c(=O)[nH]c(N2CCC(c3ccccc3)CC2)c(Cc2ccccc2)c1=O | 
22 |  |  | COc1cccc(Cc2c(N3CCC(c4ccccc4)CC3)[nH]c(=O)[nH]c2=O)c1 | inhibition [2]: 31%
23 | 19 | 150 | O=c1[nH]c(N2CCC(Cc3ccccc3)CC2)c(Cc2ccccc2)c(=O)[nH]1 | 
24 | 37 |  | N#Cc1cccc(Cc2c(N3CCC(c4ccccc4)CC3)[nH]c(=O)[nH]c2=O)c1 | 
25 | 9.2 | 158 | COc1cccc(C2CCN(c3[nH]c(=O)[nH]c(=O)c3Cc3ccccc3)CC2)c1 | Ki [4]: 1270 nM
